Assay results published in patent US20220218852A1, “NOVEL RADIOLABELLED CXCR4-TARGETING COMPOUNDS FOR DIAGNOSIS AND THERAPY” (PROVINCIAL HEALTH SERVICES AUTHORITY, priority 2019, published 2022).
Where two headings read alike, the source gives them in different places. Positions of bridges follow the written chain, without caps; N, C: chain ends. Non-standard residues stand in square brackets, D forms with d. Residues, ends and D or L forms follow the SMILES beside them. Groups on a side chain read outwards from the residue. Chains are numbered I, II in the order given. *: point of attachment. X5 = C[N+](C)(Cc1cn(CC(=O)*)nn1)C[B-](F)(F)F; 2Nal = N[C@@H](Cc1ccc2ccccc2c1)C(=O)O; X3 = C[N+](C)(CCCC(=O)*)C[B-](F)(F)F; Lys(iPr) = CC(C)NCCCC[C@H](N)C(=O)O

Tests used:
[1] = target: T1, CXCR4 (Homo sapiens, UniProt P61073); assay: Competition binding assay ([^125I]SDF-1α, CHO:CXCR4 cells); conditions: competitive binding vs [^125I]SDF-1α, read-out: IC50 (nM), binding affinity for CXCR4
T1 construct: expressed in transfected cells; host or cells: CHO:CXCR4 cells (gift from NIH); CHO:WT used as the control line
Description: The binding affinities of nonlabelled peptides for CXCR4 were determined using a competition binding assay using the CHO:CXCR4 cells. Briefly, CHO:CXCR4 cells (200,000 cells/well) were plated in a 24-well BioCoat™ Poly-D-Lysine Multiwell Plates (Corning) the previous night. The next day, each well was incubated with RPMI-1640 medium (Life Technologies Corporations) supplemented with 20 mM HEPES and 2 mg/mL BSA, [^125I]SDF-1α (0.01 nM, Perkin Elmer) and competing non-radioactive ligands ([…]) and incubated for 1-1.5 hours at 27° C. with moderate shaking. After incubation, the cells were washed with ice-cold PBS twice, trypsinized and counted on a Perkin Elmer WIZARD 2480 gamma counter. IC50 values were determined by a nonlinear regression analysis to fit a logistic equation to the competition data using GraphPad Prism 7.

[2] = target: T1, CXCR4; conditions: Peng et al. 2015; read-out: IC50, block SDF-1a binding to CXCR4; cited from earlier work

T1 sequence (P61073 whole entry): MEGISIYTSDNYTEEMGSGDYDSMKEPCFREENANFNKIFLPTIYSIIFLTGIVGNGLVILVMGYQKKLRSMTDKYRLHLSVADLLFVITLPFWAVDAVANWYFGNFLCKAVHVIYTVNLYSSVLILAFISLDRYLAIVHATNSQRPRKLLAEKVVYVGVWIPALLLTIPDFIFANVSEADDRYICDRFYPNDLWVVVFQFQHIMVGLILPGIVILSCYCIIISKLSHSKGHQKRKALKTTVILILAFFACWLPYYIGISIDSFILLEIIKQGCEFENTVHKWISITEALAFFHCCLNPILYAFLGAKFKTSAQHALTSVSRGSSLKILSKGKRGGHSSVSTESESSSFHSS

Row | IC50 [1] | Molecule | IC50 [2]
1 | 63 ± 9 nM | CC(C)NCCCC[C@@H]1NC(=O)[C@H](Cc2ccc(O)cc2)NC(=O)[C@H](Cc2ccccc2)NC(=O)CC[C@H](C(=O)N[C@@H](CCCCNC(C)C)C(=O)N[C@@H](CCCCNC(=O)[C@H](CCC(=O)O)NC(=O)[C@H](CCC(=O)O)NC(=O)[C@H](CCC(=O)O)NC(=O)[C@H](CCCCNC(=O)[C@H](CCC(=O)O)NC(=O)Cn2cc(C[N+](C)(C)C[B-](F)(F)F)nn2)NC(=O)[C@H](CCC(=O)O)NC(=O)Cn2cc(C[N+](C)(C)C[B-](F)(F)F)nn2)C(N)=O)NC(=O)CNC(=O)[C@H](Cc2ccc3ccccc3c2)NC(=O)[C@@H](CCCNC(=N)N)NC1=O [BL04] (I: FY[Lys(iPr)][dR][2Nal]G[dE][Lys(iPr)]K-NH2 / II: X5-EK([Glu-X5])EEE; amide I:9-II:C; lactam I:N-I:7) | –
2 | 11.6 ± 7 nM | CC(C)NCCCC[C@@H]1NC(=O)[C@H](Cc2ccc(O)cc2)NC(=O)[C@H](Cc2ccccc2)NC(=O)CC[C@H](C(=O)N[C@@H](CCCCNC(C)C)C(=O)N[C@@H](CCCCNC(=O)[C@H](CCC(=O)O)NC(=O)[C@H](CCC(=O)O)NC(=O)[C@H](CCC(=O)O)NC(=O)CCC[N+](C)(C)C[B-](F)(F)F)C(N)=O)NC(=O)CNC(=O)[C@H](Cc2ccc3ccccc3c2)NC(=O)[C@@H](CCCNC(=N)N)NC1=O [BL08] (FY[Lys(iPr)][dR][2Nal]G[dE][Lys(iPr)]K([Glu-Glu-Glu-X3])-NH2; lactam N-7) | –
3 | 13.4 ± 2.3 nM | CC(C)NCCCC[C@@H]1NC(=O)[C@H](Cc2ccc(O)cc2)NC(=O)[C@H](Cc2ccccc2)NC(=O)CC[C@H](C(=O)N[C@@H](CCCCNC(C)C)C(=O)N[C@@H](CCCCNC(=O)[C@H](CCC(=O)O)NC(=O)[C@H](CCC(=O)O)NC(=O)[C@H](CCC(=O)O)NC(=O)Cn2cc(C[N+](C)(C)C[B-](F)(F)F)nn2)C(N)=O)NC(=O)CNC(=O)[C@H](Cc2ccc3ccccc3c2)NC(=O)[C@@H](CCCNC(=N)N)NC1=O [BL09] (FY[Lys(iPr)][dR][2Nal]G[dE][Lys(iPr)]K([Glu-Glu-Glu-X5])-NH2; lactam N-7) | –
4 | – | cyclo[Phe-Tyr-Lys(iPr)-D-Arg-2-NaI-Gly-D-Glu]-Lys(iPr)-NH2 [LY2510924] | 0.079 nM
